# In patent US20230168259A1, “METHOD FOR PREDICTING THE COURSE OF A VIRAL DISEASE” (Leibniz-Institut für Virologie, priority 2020, published 2023):
# Experiments:
# MIP-1α = tested on: MIP-1α; design: species or system Syrian golden hamster; settings: hamster, in vivo, ip
# MIP-1β = tested on: MIP-1β; design: species or system Syrian golden hamster; settings: hamster, in vivo, ip
# SARS-CoV-2 = assay: Virus titer (plaque assay on VeroE6 cells) in organs of SARS-CoV-2 infected hamsters treated with letrozole or placebo; type: in vivo, Syrian golden hamster; settings: 0.18 mg kg-1 i.p. daily, 3 d p.i., compared to placebo
# [1] = SARS-CoV-2-infected female hamsters
# [2] = SARS-CoV-2-infected male hamsters
smiles,measurement,setting,value
N#Cc1ccc(C(c2ccc(C#N)cc2)n2cncn2)cc1 [letrozole],expression level of MIP-1α in lungs,MIP-1α,lower
same,expression level of MIP-1β in lungs,MIP-1β,lower
same,virus titer in brain,SARS-CoV-2; [1],lower virus titers
same,virus titer in lungs,SARS-CoV-2; [1],lower virus titers
same,virus titer in plasma,SARS-CoV-2; [1],lower virus titers
same,virus titer in brain,SARS-CoV-2; [2],lower virus titers
same,virus titer in lungs,SARS-CoV-2; [2],lower virus titers
same,virus titer in testis,SARS-CoV-2; [2],lower virus titers
